Key:
human skin = assay: Skin irritation test of active ingredient (patch method, CTFA guidelines); assay type: in vivo; details: for Test result (number of subject) (+) / Test result (number of subject) (−) / Test result (number of subject) (++) / Test result (number of subject) (±): 20 subjects, 24 hours patch; for Test result (number of subject) (+): apparent reddening; for Test result (number of subject) (−): no erythema or symptoms; for Test result (number of subject) (++): reddened and swollen; for Test result (number of subject) (±): slightly reddish; for Degree of irritation: Equation 1
Experimental: A total of 20 people (10 men and 10 women in their 20s and 30s) were tested for skin irritation using the patch method according to the guidelines of CTFA (The Cosmetic, Toiletry & Fragrance Association, Inc. Washington, D.C.).
A filter paper disk was placed in an 8 mm diameter, 10 panels of pin chamber.
After 24 hours, the pin chamber was removed, and skin conditions were visually observed. The degree and grade for skin irritation were calculated according to the following Equation 1, and the results are shown in Table 3 below.
[Criteria for Skin Irritation]
(−): No erythema or particularly no symptoms; (±): slightly reddish than the periphery; (+): Apparent reddening than periphery; (++): More reddened and swollen than periphery.
[Grade for Skin Irritation]
Degree of irritation 0-0.1: Grade I (unstimulated);
Degree of irritation 0.11-0.3: Grade II (weakly stimulated);
Degree of irritation 0.31-0.5: Grade III (moderately stimulated);
Degree of irritation 0.51 or more: Grade IV (strongly stimulated)

[1] = Formaldehyde removing ability test (GC); details: 2.0% formaldehyde solution, 3 molar equivalents, room temperature

O=C(O)c1cncc(N2CCN(c3cncc(C(=O)O)c3)CCN(c3cncc(C(=O)O)c3)CCN(c3cncc(C(=O)O)c3)CC2)c1 [Embodiment 7, 5,5′,5″,5′″-(1,4,7,10-tetraazacyclododecane-1,4,7,10-tetrayl)tetranicotinic Acid]
Grade (human skin; content 0.1%): I (Degree of irritation 0-0.1: Grade I (unstimulated))
Test result (number of subject) (+) (human skin; content 0.1%): 0
Test result (number of subject) (−) (human skin; content 0.1%): 20
Test result (number of subject) (++) (human skin; content 0.1%): 0
Test result (number of subject) (±) (human skin; content 0.1%): 0
Degree of irritation (human skin; content 0.1%): 0
Grade (human skin; content 0.5%): I (Degree of irritation 0-0.1: Grade I (unstimulated))
Test result (number of subject) (+) (human skin; content 0.5%): 0
Test result (number of subject) (−) (human skin; content 0.5%): 20
Test result (number of subject) (++) (human skin; content 0.5%): 0
Test result (number of subject) (±) (human skin; content 0.5%): 0
Degree of irritation (human skin; content 0.5%): 0
Grade (human skin; content 1.0%): I (Degree of irritation 0-0.1: Grade I (unstimulated))
Test result (number of subject) (+) (human skin; content 1.0%): 0
Test result (number of subject) (−) (human skin; content 1.0%): 20
Test result (number of subject) (++) (human skin; content 1.0%): 0
Test result (number of subject) (±) (human skin; content 1.0%): 0
Degree of irritation (human skin; content 1.0%): 0
Area (formaldehyde, GC) ([1]; 30 min): 0.181 mAU * min
Area (formaldehyde, GC) ([1]; 180 min): 0 mAU * min
Area (formaldehyde, GC) ([1]; Initial): 0.305 mAU * min

O=C(O)CN(CCN(CCN(CC(=O)O)CC(=O)O)CC(=O)O)CCN(CC(=O)O)CC(=O)O [Embodiment 1, 3,6,9,12-tetrakis(carboxymethyl)-3,6,9,12-tetraazatetradecanedioic Acid]
Grade (human skin; content 0.1%): I (Degree of irritation 0-0.1: Grade I (unstimulated))
Test result (number of subject) (+) (human skin; content 0.1%): 0
Test result (number of subject) (−) (human skin; content 0.1%): 20
Test result (number of subject) (++) (human skin; content 0.1%): 0
Test result (number of subject) (±) (human skin; content 0.1%): 0
Degree of irritation (human skin; content 0.1%): 0
Grade (human skin; content 0.5%): I (Degree of irritation 0-0.1: Grade I (unstimulated))
Test result (number of subject) (+) (human skin; content 0.5%): 0
Test result (number of subject) (−) (human skin; content 0.5%): 19
Test result (number of subject) (++) (human skin; content 0.5%): 0
Test result (number of subject) (±) (human skin; content 0.5%): 1
Degree of irritation (human skin; content 0.5%): 0.05
Grade (human skin; content 1.0%): II (Degree of irritation 0.11-0.3: Grade II (weakly stimulated))
Test result (number of subject) (+) (human skin; content 1.0%): 0
Test result (number of subject) (−) (human skin; content 1.0%): 16
Test result (number of subject) (++) (human skin; content 1.0%): 0
Test result (number of subject) (±) (human skin; content 1.0%): 4
Degree of irritation (human skin; content 1.0%): 0.20
Area (formaldehyde, GC) ([1]; 30 min): 0.170 mAU * min
Area (formaldehyde, GC) ([1]; 180 min): 0 mAU * min
Area (formaldehyde, GC) ([1]; Initial): 0.305 mAU * min

O=C(O)CN1CCCN(CC(=O)O)CCN(CC(=O)O)CCCN(CC(=O)O)CC1 [Embodiment 9, 2,2′,2″,2′″-(1,4,8,11-tetraazacyclotetradecane-1,4,8,11-tetrayl)tetraacetic Acid]
Grade (human skin; content 0.1%): I (Degree of irritation 0-0.1: Grade I (unstimulated))
Test result (number of subject) (+) (human skin; content 0.1%): 0
Test result (number of subject) (−) (human skin; content 0.1%): 20
Test result (number of subject) (++) (human skin; content 0.1%): 0
Test result (number of subject) (±) (human skin; content 0.1%): 0
Degree of irritation (human skin; content 0.1%): 0
Grade (human skin; content 0.5%): I (Degree of irritation 0-0.1: Grade I (unstimulated))
Test result (number of subject) (+) (human skin; content 0.5%): 0
Test result (number of subject) (−) (human skin; content 0.5%): 20
Test result (number of subject) (++) (human skin; content 0.5%): 0
Test result (number of subject) (±) (human skin; content 0.5%): 0
Degree of irritation (human skin; content 0.5%): 0
Grade (human skin; content 1.0%): I (Degree of irritation 0-0.1: Grade I (unstimulated))
Test result (number of subject) (+) (human skin; content 1.0%): 0
Test result (number of subject) (−) (human skin; content 1.0%): 18
Test result (number of subject) (++) (human skin; content 1.0%): 0
Test result (number of subject) (±) (human skin; content 1.0%): 2
Degree of irritation (human skin; content 1.0%): 0.10
Area (formaldehyde, GC) ([1]; 30 min): 0.182 mAU * min
Area (formaldehyde, GC) ([1]; 180 min): 0 mAU * min
Area (formaldehyde, GC) ([1]; Initial): 0.305 mAU * min

O=C(O)c1ccc(N2CCCN(c3ccc(C(=O)O)cc3)CCN(c3ccc(C(=O)O)cc3)CCCN(c3ccc(C(=O)O)cc3)CC2)cc1 [Embodiment 10, 4,4′,4″,4′-(1,4,8,11-tetraazacyclotetradecane-1,4,8,11-tetrayl)tetrabenzoic Acid]
Grade (human skin; content 0.1%): I (Degree of irritation 0-0.1: Grade I (unstimulated))
Test result (number of subject) (+) (human skin; content 0.1%): 0
Test result (number of subject) (−) (human skin; content 0.1%): 20
Test result (number of subject) (++) (human skin; content 0.1%): 0
Test result (number of subject) (±) (human skin; content 0.1%): 0
Degree of irritation (human skin; content 0.1%): 0
Grade (human skin; content 0.5%): I (Degree of irritation 0-0.1: Grade I (unstimulated))
Test result (number of subject) (+) (human skin; content 0.5%): 0
Test result (number of subject) (−) (human skin; content 0.5%): 20
Test result (number of subject) (++) (human skin; content 0.5%): 0
Test result (number of subject) (±) (human skin; content 0.5%): 0
Degree of irritation (human skin; content 0.5%): 0
Grade (human skin; content 1.0%): I (Degree of irritation 0-0.1: Grade I (unstimulated))
Test result (number of subject) (+) (human skin; content 1.0%): 0
Test result (number of subject) (−) (human skin; content 1.0%): 19
Test result (number of subject) (++) (human skin; content 1.0%): 0
Test result (number of subject) (±) (human skin; content 1.0%): 1
Degree of irritation (human skin; content 1.0%): 0.05
Area (formaldehyde, GC) ([1]; 30 min): 0.171 mAU * min
Area (formaldehyde, GC) ([1]; 180 min): 0 mAU * min
Area (formaldehyde, GC) ([1]; Initial): 0.305 mAU * min

O=C(O)c1ccc(N2CCN(c3ccc(C(=O)O)o3)CCN(c3ccc(C(=O)O)o3)CCN(c3ccc(C(=O)O)o3)CC2)o1 [Embodiment 8, 5,5′,5″,5′″-(1,4,7,10-tetraazacyclododecane-1,4,7,10-tetrayl)tetrakis(furan-2-carboxylic Acid)]
Grade (human skin; content 0.1%): I (Degree of irritation 0-0.1: Grade I (unstimulated))
Test result (number of subject) (+) (human skin; content 0.1%): 0
Test result (number of subject) (−) (human skin; content 0.1%): 20
Test result (number of subject) (++) (human skin; content 0.1%): 0
Test result (number of subject) (±) (human skin; content 0.1%): 0
Degree of irritation (human skin; content 0.1%): 0
Grade (human skin; content 0.5%): I (Degree of irritation 0-0.1: Grade I (unstimulated))
Test result (number of subject) (+) (human skin; content 0.5%): 0
Test result (number of subject) (−) (human skin; content 0.5%): 20
Test result (number of subject) (++) (human skin; content 0.5%): 0
Test result (number of subject) (±) (human skin; content 0.5%): 0
Degree of irritation (human skin; content 0.5%): 0
Grade (human skin; content 1.0%): I (Degree of irritation 0-0.1: Grade I (unstimulated))
Test result (number of subject) (+) (human skin; content 1.0%): 0
Test result (number of subject) (−) (human skin; content 1.0%): 18
Test result (number of subject) (++) (human skin; content 1.0%): 0
Test result (number of subject) (±) (human skin; content 1.0%): 2
Degree of irritation (human skin; content 1.0%): 0.10
Area (formaldehyde, GC) ([1]; 30 min): 0.168 mAU * min
Area (formaldehyde, GC) ([1]; 180 min): 0 mAU * min
Area (formaldehyde, GC) ([1]; Initial): 0.305 mAU * min

C1CNCCNCCNCCN1 [Cyclen, 1,4,7,10-tetraazacyclododecane]
Grade (human skin; content 0.1%): I (Degree of irritation 0-0.1: Grade I (unstimulated))
Test result (number of subject) (+) (human skin; content 0.1%): 0
Test result (number of subject) (−) (human skin; content 0.1%): 20
Test result (number of subject) (++) (human skin; content 0.1%): 0
Test result (number of subject) (±) (human skin; content 0.1%): 0
Degree of irritation (human skin; content 0.1%): 0
Grade (human skin; content 0.5%): I (Degree of irritation 0-0.1: Grade I (unstimulated))
Test result (number of subject) (+) (human skin; content 0.5%): 0
Test result (number of subject) (−) (human skin; content 0.5%): 20
Test result (number of subject) (++) (human skin; content 0.5%): 0
Test result (number of subject) (±) (human skin; content 0.5%): 0
Degree of irritation (human skin; content 0.5%): 0
Grade (human skin; content 1.0%): II (Degree of irritation 0.11-0.3: Grade II (weakly stimulated))
Test result (number of subject) (+) (human skin; content 1.0%): 1
Test result (number of subject) (−) (human skin; content 1.0%): 18
Test result (number of subject) (++) (human skin; content 1.0%): 0
Test result (number of subject) (±) (human skin; content 1.0%): 1
Degree of irritation (human skin; content 1.0%): 0.15
Area (formaldehyde, GC) ([1]; 30 min): 0.181 mAU * min
Area (formaldehyde, GC) ([1]; 180 min): 0 mAU * min
Area (formaldehyde, GC) ([1]; Initial): 0.305 mAU * min
